Results published in ChEMBL document CHEMBL1649179, “Pharmacokinetics of LB80331 and LB80317 following oral administration of LB80380, a new antiviral agent for chronic hepatitis B (CHB), in healthy adult subjects, CHB patients, and mice” (Antimicrob Agents Chemother, 2009).

Columns and labels:
[1] = test system: Hepatitis B virus; test: Antiviral activity against hepatitis B virus infected in human assessed as log reduction in viral titer per ml of serum at 30 mg, po qd for 4 weeks; format: functional
[2] = test system: Homo sapiens; test: Toxicity in chronic hepatitis B virus infected patient assessed as serum ALT level at 30 mg, po qd for 4 weeks by LC-MS analysis; format: organism-based; settings: in vivo, 672 h
[3] = test system: Homo sapiens; test: Toxicity in chronic hepatitis B virus infected patient assessed as serum ALT level at 60 mg, po qd for 4 weeks by LC-MS analysis; format: organism-based; settings: in vivo, 672 h
[4] = test system: Hepatitis B virus; test: Antiviral activity against hepatitis B virus infected in human assessed as log reduction in viral titer per ml of serum at 240 mg, po qd for 4 weeks; format: functional
[5] = test system: Homo sapiens; test: Toxicity in chronic hepatitis B virus infected patient assessed as serum ALT level at 240 mg, po qd for 4 weeks by LC-MS analysis; format: organism-based; settings: in vivo, 672 h
[6] = test system: Homo sapiens; test: Toxicity in chronic hepatitis B virus infected patient assessed as serum ALT level at 120 mg, po qd for 4 weeks by LC-MS analysis; format: organism-based; settings: in vivo, 672 h

CC(C)(C)C(=O)OCOP(=O)(COC1(Cn2cnc3cnc(N)nc32)CC1)OCOC(=O)C(C)(C)C [LB80380]
FC [1]: 3.02
Activity [2]: 79.5 U/L
Activity [3]: 68.7 U/L
FC [4]: 3.8
Activity [5]: 27 U/L
Activity [6]: 34.5 U/L
